Laboratory results taken from patent US20120077803A1, “Uses Of NK Receptor Antagonists” (NOVARTIS AG, priority 2009, published 2012).

Assays:
[1] = test system: dogs with flea allergic dermatitis; test: Pruritus intensity by Actical activity monitors in flea allergic dogs; type: in vivo, Beagle dogs; details: for Actical day, mean (standard deviation): 6am-6pm; for Actical night, mean (standard deviation): 6pm-6am
Experimental: (§1) Flea-allergic laboratory Beagle dogs are infested with fleas. Fifty (50) Ctenocephalides felis fleas, 18 to 20 days old are released on the back of every dog on D1. Dogs are combed 48 hours (D3) after infestation to reduce the number of fleas (reduction of allergen charge).
Pruritus intensity: Pruritus intensity is evaluated using activity monitors (Actical™: Actiwatch™; Cambridge Neuorotechnology Ltd, Papworth Everard, UK) according to Nuttall and McEwan. (Nuttal T and McEwan N, “Objective measurement of pruritus in dogs: a preliminary study using activity monitors”. ESVD, 2006, 17 348-351). The physical activity monitors, mounted on collars, are placed around the dog's neck and tightened to the extent that they more with the skin but not so that they compress the underlying tissues. They were put on the dogs on D −5. […] This typically allows to see the difference in activity when the dogs have fleas and are developing pruritic and inflammatory lesions (i.e. dermatitis) and then again their activity during treatment with either the Test Compound or Prednisolone. The activity monitors are typically removed at the end of each phase on D12. Activity monitors measure the movement average within 15 seconds,
(§2) Skin lesions are allowed to develop until the total lesion score reaches ˜20. The Test Compound is then given orally at 50, 150 and 300 mg/day, divided into 2 doses, for 5 days. Prednisolone (10 mg/day, orally) is used as a comparator.
(§3) Lesion scores and Actical™ measurement values are typically observed on the following days: • Pre-value: before challenge with fleas • the day of challenge with fleas (Actical™ measurements only); • D1: the day when the total lesion score reached a sufficiently high value (average lesion score 20) and treatment of the animal started. • D2 to D6,
(§4) In the treatment group, lesion scores were taken from 8 dogs. Actical™ measurements were also taken from 6 of these dogs.

[2] = test system: dogs with flea allergic dermatitis; test: Skin lesion scores (total lesion score) in dogs with flea-allergic dermatitis; type: in vivo, Beagle dogs
Experimental: as §1
Skin observations: before flea infestations (D −1) all dogs are typically examined to establish a baseline score for erythema, papules, crusts, scales, alopecia, and excoriation. From D1, daily clinical observations are performed. Each lesion is typically graded using a scale from 0 to 3:
0=no signs 1=mild 2=moderate 3=severe
as §2
Erythema: is typically an acute clinical sign of cutaneous inflammation defined as redness of the skin caused by capillary congestion which can be aggravated by scratching. Excoriation: is typically a punctuate or linear abrasion produced by mechanical means, usually involving only the epidermis but not uncommonly reaching the papillary dermis. […] Papule: is typically a circumscribed, solid elevation with no visible fluid, varying in size from a pinhead to 1 cm. […], formed when there is a high break in the follicle wall. In the presence of bacteria, papules become pustules. Crusts: are typically dried serum, pus, or blood usually mixed with epithelial and sometimes bacterial debris. Scales: are dry or greasy laminated masses of keratin.
as §3, §4
• Erythema*, • Excoriations*, • Papules/pustules • Self induced alopecia^o, and • Scales, • Erythema and excoriations are related to pruritus • Self induced alopecia is also related to pruritus but the improvement is […] after several weeks of treatment.
Day 1 of treatment when dogs reached a sufficient lesion score to initiate treatment (average 20). Pre-values (baseline).

[3] = 50 mg/day orally in 2 doses, day 1 (treatment start)
[4] = 50 mg/day orally in 2 doses, day 2
[5] = 50 mg/day orally in 2 doses, day 3
[6] = 50 mg/day orally in 2 doses, day 4
[7] = 50 mg/day orally in 2 doses, day 5
[8] = 50 mg/day orally in 2 doses, day 6
[9] = 150 mg/day orally in 2 doses, day 1 (treatment start)
[10] = 150 mg/day orally in 2 doses, day 2
[11] = 150 mg/day orally in 2 doses, day 3
[12] = 150 mg/day orally in 2 doses, day 4
[13] = 150 mg/day orally in 2 doses, day 5
[14] = 150 mg/day orally in 2 doses, day 6
[15] = 300 mg/day orally in 2 doses, day 1 (treatment start)
[16] = 300 mg/day orally in 2 doses, day 2
[17] = 300 mg/day orally in 2 doses, day 3
[18] = 300 mg/day orally in 2 doses, day 4
[19] = 300 mg/day orally in 2 doses, day 5
[20] = 300 mg/day orally in 2 doses, day 6

`CN(C(=O)c1cc(C(F)(F)F)cc(C(F)(F)F)c1)[C@@H](/C=C/C(=O)N[C@@H]1CCCCNC1=O)Cc1ccc(Cl)c(Cl)c1` [Test Compound, N-[(E)-(R)-1-(3,4-Dichloro-benzyl)-3-((R)-2-oxo-azepan-3-ylcarbamoyl)-allyl]-N-methyl-3,5-bis-trifluoromethyl-benzamide] was tested, and the “Control of pruritic activity (daytime) compared with Prednisolone” value ([1]; 150 mg and 50 mg, after 5 days of BID administrations) was “equipotent to the Prednisolone controls”, the “Actical day, mean (standard deviation)” value [1, 3] was 88 (46) Average activity counts every 15 secs and the “Actical day, mean (standard deviation)” value [1, 4] was 64 (40) Average activity counts every 15 secs. The “Actical day, mean (standard deviation)” value [1, 5] was 72 (35) Average activity counts every 15 secs, the “Actical day, mean (standard deviation)” value [1, 6] was 67 (37) Average activity counts every 15 secs and the “Actical day, mean (standard deviation)” value [1, 7] was 62 (40) Average activity counts every 15 secs. For the same compound, the “Actical day, mean (standard deviation)” value [1, 8] was 48 (31) Average activity counts every 15 secs, the “Actical day, mean (standard deviation)” value ([1]; 50 mg/day orally in 2 doses, fleas (day of challenge)) was 84 (47) Average activity counts every 15 secs and the “Actical day, mean (standard deviation)” value ([1]; 50 mg/day orally in 2 doses, pre (before exposure to fleas)) was 46 (16) Average activity counts every 15 secs. For the same compound, the “Actical day, mean (standard deviation)” value [1, 9] was 58 (17) Average activity counts every 15 secs, the “Actical day, mean (standard deviation)” value [1, 10] was 48 (13) Average activity counts every 15 secs and the “Actical day, mean (standard deviation)” value [1, 11] was 53 (15) Average activity counts every 15 secs. The “Actical day, mean (standard deviation)” value [1, 12] was 44 (17) Average activity counts every 15 secs, the “Actical day, mean (standard deviation)” value [1, 13] was 60 (41) Average activity counts every 15 secs and the “Actical day, mean (standard deviation)” value [1, 14] was 40 (21) Average activity counts every 15 secs. For the same compound, the “Actical day, mean (standard deviation)” value ([1]; 150 mg/day orally in 2 doses, fleas (day of challenge)) was 53 (16) Average activity counts every 15 secs, the “Actical day, mean (standard deviation)” value ([1]; 150 mg/day orally in 2 doses, pre (before exposure to fleas)) was 31 (8) Average activity counts every 15 secs and the “Actical day, mean (standard deviation)” value [1, 15] was 114 (35) Average activity counts every 15 secs. For the same compound, the “Actical day, mean (standard deviation)” value [1, 16] was 116 (77) Average activity counts every 15 secs, the “Actical day, mean (standard deviation)” value [1, 17] was 99 (38) Average activity counts every 15 secs and the “Actical day, mean (standard deviation)” value [1, 18] was 107 (28) Average activity counts every 15 secs. The “Actical day, mean (standard deviation)” value [1, 19] was 129 (53) Average activity counts every 15 secs, the “Actical day, mean (standard deviation)” value [1, 20] was 79 (21) Average activity counts every 15 secs and the “Actical day, mean (standard deviation)” value ([1]; 300 mg/day orally in 2 doses, fleas (day of challenge)) was 93 (37) Average activity counts every 15 secs. The “Actical day, mean (standard deviation)” value ([1]; 300 mg/day orally in 2 doses, pre (before exposure to fleas)) was 58 (21) Average activity counts every 15 secs, the “Actical night, mean (standard deviation)” value ([1]; 50 mg/day orally in 2 doses, Fleas (day of challenge)) was 6.8 (4.9) Average activity counts every 15 secs and the “Actical night, mean (standard deviation)” value ([1]; 50 mg/day orally in 2 doses, Pre (before exposure to fleas)) was 5.2 (3.3) Average activity counts every 15 secs. The “Actical night, mean (standard deviation)” value [1, 3] was 22.1 (13.5) Average activity counts every 15 secs, the “Actical night, mean (standard deviation)” value [1, 4] was 13.2 (11.8) Average activity counts every 15 secs and the “Actical night, mean (standard deviation)” value [1, 5] was 11.5 (7.3) Average activity counts every 15 secs. For the same compound, the “Actical night, mean (standard deviation)” value [1, 6] was 12.6 (9.9) Average activity counts every 15 secs, the “Actical night, mean (standard deviation)” value [1, 7] was 9.8 (6.8) Average activity counts every 15 secs and the “Actical night, mean (standard deviation)” value [1, 8] was 9.9 (7.4) Average activity counts every 15 secs. The “Actical night, mean (standard deviation)” value ([1]; 150 mg/day orally in 2 doses, Fleas (day of challenge)) was 6.2 (3.8) Average activity counts every 15 secs, the “Actical night, mean (standard deviation)” value ([1]; 150 mg/day orally in 2 doses, Pre (before exposure to fleas)) was 4.2 (2.2) Average activity counts every 15 secs and the “Actical night, mean (standard deviation)” value [1, 9] was 14.6 (4.2) Average activity counts every 15 secs. For the same compound, the “Actical night, mean (standard deviation)” value [1, 10] was 10.7 (6.8) Average activity counts every 15 secs, the “Actical night, mean (standard deviation)” value [1, 11] was 10.6 (7.5) Average activity counts every 15 secs and the “Actical night, mean (standard deviation)” value [1, 12] was 9.4 (4.2) Average activity counts every 15 secs. The “Actical night, mean (standard deviation)” value [1, 13] was 10.4 (6.5) Average activity counts every 15 secs, the “Actical night, mean (standard deviation)” value [1, 14] was 11.2 (7.4) Average activity counts every 15 secs and the “Actical night, mean (standard deviation)” value ([1]; 300 mg/day orally in 2 doses, Fleas (day of challenge)) was 6.8 (3.0) Average activity counts every 15 secs. The “Actical night, mean (standard deviation)” value ([1]; 300 mg/day orally in 2 doses, Pre (before exposure to fleas)) was 7.0 (3.8) Average activity counts every 15 secs, the “Actical night, mean (standard deviation)” value [1, 15] was 24.6 (22.5) Average activity counts every 15 secs and the “Actical night, mean (standard deviation)” value [1, 16] was 11.9 (4.8) Average activity counts every 15 secs. The “Actical night, mean (standard deviation)” value [1, 17] was 16.8 (9.5) Average activity counts every 15 secs, the “Actical night, mean (standard deviation)” value [1, 18] was 20.7 (10.5) Average activity counts every 15 secs and the “Actical night, mean (standard deviation)” value [1, 19] was 16.2 (13.2) Average activity counts every 15 secs. For the same compound, the “Actical night, mean (standard deviation)” value [1, 20] was 13.3 (10.2) Average activity counts every 15 secs, the “Control of nighttime activity back to baseline” value ([1]; Test Compound doses, in particular 50 mg, BID) was “positive efficacy” and the “Total score ctb (total lesion score compared to baseline), mean (standard deviation)” value [2, 4] was −3.7 (4.9). For the same compound, the “Total score ctb (total lesion score compared to baseline), mean (standard deviation)” value [2, 5] was −2.8 (5.5), the “Total score ctb (total lesion score compared to baseline), mean (standard deviation)” value [2, 6] was −1.9 (7.1) and the “Total score ctb (total lesion score compared to baseline), mean (standard deviation)” value [2, 7] was −2.8 (6.4). The “Total score ctb (total lesion score compared to baseline), mean (standard deviation)” value [2, 8] was −8.7 (9.9), the “Total score ctb (total lesion score compared to baseline), mean (standard deviation)” value [2, 10] was −2.3 (3.3) and the “Total score ctb (total lesion score compared to baseline), mean (standard deviation)” value [2, 11] was −3.9 (4.0). For the same compound, the “Total score ctb (total lesion score compared to baseline), mean (standard deviation)” value [2, 12] was −6.4 (3.3), the “Total score ctb (total lesion score compared to baseline), mean (standard deviation)” value [2, 13] was −5.0 (3.8) and the “Total score ctb (total lesion score compared to baseline), mean (standard deviation)” value [2, 14] was −8.8 (8.8). For the same compound, the “Reduction of the lesion score (inhibition) compared with prednisolone” value ([2]; 300 mg, 150 mg, 50 mg) was “in the same range as the potent corticosteroid prednisolone”, the “Total score ctb (total lesion score compared to baseline), mean (standard deviation)” value [2, 16] was −3.6 (9.1) and the “Total score ctb (total lesion score compared to baseline), mean (standard deviation)” value [2, 17] was −4.1 (6.4). The “Total score ctb (total lesion score compared to baseline), mean (standard deviation)” value [2, 18] was −7.6 (8.4), the “Total score ctb (total lesion score compared to baseline), mean (standard deviation)” value [2, 19] was −7.6 (9.7) and the “Total score ctb (total lesion score compared to baseline), mean (standard deviation)” value [2, 20] was −6.7 (8.1).
